Test results: US20070219212A1, “Pyranouidole Derivatives and the Use Thereof for the Treatment of Hepatitis C Virus Infection or Disease” (priority 2004, published 2007)
Read-outs that look alike come from different tables or passages of the source.

Columns and labels:
[1] = biological target: T1, NS5B from the BK strain (genotype 1b) (Hepatitis C virus genotype 1b, UniProt P26663); experiment: Hepatitis C polymerase (NS5B, BK strain) inhibition, radioactive filter assay; format: biochemical; conditions: NS5B BK strain (genotype 1b)
T1 construct: NS5B from the BK strain (genotype 1b) is expressed in E coli as a protein in which the 21 C-terminal amino acids are replaced; made in house; host or cells: E. coli
Excerpt: (§1) The ability of the compounds of the present invention to inhibit Hepatitis C Polymerase was established by the following experimental procedure:
NS5B from the BK strain (genotype 1b) is expressed in E coli as a protein in which the 21 C-terminal amino acids are replaced with a short linker and a hexahistidine tag ([…]). The purified protein is mixed with radioactive nucleotides and allowed to replicate a heteropolymeric RNA substrate, primed by an endogenous short hairpin, resulting in an approximately 760 nt product. The radioactive product is captured on a filter and quantitated after removal of the unincorporated nucleotides.
(§2) • 0.5M Na Phosphate buffer. Per liter, weigh 134 gr Na2HPO4.7H2O, add water to 900 ml. Adjust pH to 7.0 with phosphoric acid. Top off with water to 1 L. • Dilute nucleotides 1:1000 to 10 μM (GTP and CTP) or 1:100 to 100 μM (ATP and UTP) into RNase free water. Procedure: • (1) Compounds 10 μl at […] in 15% dimethylsulfoxide (DMSO) When starting from 100 μg/ml compound stock in 1% DMSO: Dispense 5 μl 30% DMSO per well Dispense 5 μl compound (100 μg/ml) per well. When starting from 50 μg/ml compound stock in 15% DMSO: Add 10 μl compound per well.
(§3) Add 20 μl enzyme mix into each well of the assay plate. Incubate compound and enzyme at room temperature for 15 minutes • (3) Template mix—prepare ahead
(§4) Spin down a tube of RNA (5 μg/tube stored in 75% ethanol and 0.3 M sodium acetate) in a microcentrifuge for 20 minutes at 4° C. One tube is enough for 1-1.5 plates. Remove as much ethanol from the tube as possible by inverting the tube. Be gentle, pellet RNA may not adhere to the tube. Vacuum dry the RNA. Resuspend the RNA by adding 1 ml of DEPC water, close the cap of the tube tightly. To dissolve RNA, incubate RNA solution on ice for ˜60 minutes and gently vortex. Spin briefly to ensure all RNA solution is down to the bottom of the tube before opening cap. Gently transfer RNA solution into a 5 ml or larger tube. Add another 3 ml of DEPC water (total 4 ml of volume).
(§5) Add the following volumes of reagents
(§6) Add 20 μl template mix per reaction (i.e. 20 ng of pOF per reaction or ˜3 nM) • (4) Incubate reaction at room temperature (22-25° C.) for 2 hours. • (5) Stop reaction by adding 50 μl of 170 mM EDTA.
(§7) Final concentration of EDTA is 85 mM. • (6) Prewet filters of Millipore multiscreen assay plate by adding 200 μl of 0.5 M sodium phosphate buffer, pH 7.0 into each well. Let stand at room temperature for 2-3 minutes. • (7) Place the multiscreen filter plate onto a Millipore Manifold and turn on vacuum to allow buffer to flow through. Turn off vacuum. Transfer 80 μl of the reaction product into each well of the filter plate. Let stand for 2-3 minutes. Turn on vacuum to filter reaction product. • (8) Turn off vacuum. Add 200 μl of 0.5 M sodium phosphate buffer, pH 7.0 into each well to wash filter. Turn on vacuum.
(§8) Repeat step (8) three more times. • (9) Remove polypropylene bottom. Spot dry filter at the bottom with paper towel. Air dry filter plate on a bench for 1 hour. Add 40 μl Super Mix scintillant. Seal top of the plate with a tape. Place plate into a Packard carrier or micro-beta carrier. • (10) Count plate using a Packard Topcount or micro-beta counter. Count (for example using Program 10) for ^33P in Top count or ^33P program in micro-beta.
(§9) See, Ferrari et al. 1999. J. Virology 73:1649-1654: “Characterization of soluble Hepatitis C virus RNA-dependent RNA polymerase expressed in E. coli and Takamizawa et al. 1991” and J. Virology 65:1105-1113: “Structure and characterization of the Hepatitis C virus genome isolated from human carriers,” both references are hereby incorporated by reference.

[2] = biological target: BB7 RNA-dependent RNA polymerase hepatitis C virus protein (Con1 HCV sequence) (Hepatitis C virus genotype 1b, UniProt Q9WMX2); experiment: Hepatitis C polymerase (BB7) inhibition; format: biochemical
Excerpt: For purposes of this invention, the term “BB7” denotes an RNA-dependent RNA polymerase hepatitis C virus protein sequence which is derived from HCV replicon. A discussion of BB7 and related technology can be found in Blight, K. et al. (2000) Science 290:1972-1974. BB7 can be licensed from Apath, LLC (893 North Warson Road, Saint Louis Mo. 63141, USA). BB7 is also referred to as Con1 HCV sequence and discussions of Con1 can be found in the following references: Lohmann, V. et al. (1999) Science 285:110-113; Pietschmann, T. et al. (2001) J. Virol. […]:1252-1264; Lohmann, V. et al. (2001) J. Virol. 75:1437-1449.
as §1, §2, §3, §4, §5, §6, §7, §8, §9

[3] = BB7 (Con1) NS5B, read-out: BB7 IC50

T1 sequence (P26663 2420-2989): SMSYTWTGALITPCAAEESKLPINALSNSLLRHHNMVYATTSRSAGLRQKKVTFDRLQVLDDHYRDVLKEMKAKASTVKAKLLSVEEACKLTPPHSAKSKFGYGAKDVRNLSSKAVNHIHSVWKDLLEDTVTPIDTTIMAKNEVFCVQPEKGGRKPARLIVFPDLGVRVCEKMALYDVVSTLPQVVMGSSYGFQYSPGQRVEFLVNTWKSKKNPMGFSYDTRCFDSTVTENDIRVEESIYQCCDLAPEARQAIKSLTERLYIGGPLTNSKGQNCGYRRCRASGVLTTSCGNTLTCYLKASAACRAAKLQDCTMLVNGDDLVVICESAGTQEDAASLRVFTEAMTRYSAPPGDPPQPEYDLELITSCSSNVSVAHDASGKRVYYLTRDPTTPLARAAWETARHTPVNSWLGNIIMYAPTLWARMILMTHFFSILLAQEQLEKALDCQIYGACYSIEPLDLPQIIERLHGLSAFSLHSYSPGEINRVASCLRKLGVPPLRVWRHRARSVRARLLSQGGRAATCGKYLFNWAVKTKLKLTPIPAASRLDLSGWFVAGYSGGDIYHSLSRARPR
Chain of BB7 RNA-dependent RNA polymerase hepatitis C virus protein (Con1 HCV sequence) (Q9WMX2 2420-3010): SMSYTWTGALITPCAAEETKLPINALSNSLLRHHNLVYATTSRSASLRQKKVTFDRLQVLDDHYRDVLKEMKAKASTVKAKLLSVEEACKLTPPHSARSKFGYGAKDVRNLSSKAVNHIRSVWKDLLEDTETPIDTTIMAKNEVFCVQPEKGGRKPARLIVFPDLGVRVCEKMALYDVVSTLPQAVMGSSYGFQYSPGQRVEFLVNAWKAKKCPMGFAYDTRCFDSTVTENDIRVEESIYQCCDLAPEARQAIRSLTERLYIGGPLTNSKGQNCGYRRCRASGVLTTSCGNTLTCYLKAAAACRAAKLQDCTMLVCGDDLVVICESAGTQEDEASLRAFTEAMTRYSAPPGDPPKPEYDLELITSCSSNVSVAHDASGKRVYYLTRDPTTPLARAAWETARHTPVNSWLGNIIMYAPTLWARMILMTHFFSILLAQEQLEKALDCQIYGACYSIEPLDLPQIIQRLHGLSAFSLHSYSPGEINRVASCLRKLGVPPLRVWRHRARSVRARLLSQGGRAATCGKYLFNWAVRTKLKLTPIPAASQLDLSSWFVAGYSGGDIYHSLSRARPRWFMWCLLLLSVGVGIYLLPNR

| SMILES | IC50 [1] | IC50 [2] | IC50 [2, 3] |
| --- | --- | --- | --- |
| CCCC1(CC(=O)O)OCCc2c1[nH]c1c(C)c(OCC3CCNCC3)cc(C#N)c21 (centres unmarked) [Example 74] | < 500 nM | < 500 nM | – |
| CCCC1(CC(=O)O)OCCc2c1[nH]c1c(C)c(OCc3nn(C)cc3Cl)cc(C#N)c21 (centres unmarked) [Example 75] | < 500 nM | < 500 nM | – |
| CCCC1(CC(=O)O)OCCc2c1[nH]c1c(C)c(OCc3c[nH]cn3)cc(C#N)c21 (centres unmarked) [Example 76] | < 500 nM | – | < 500 nM |
| CCCC1(CC(=O)O)OCCc2c1[nH]c1c(C)c(OCc3conc3C)cc(C#N)c21 (centres unmarked) [Example 77] | < 500 nM | < 500 nM | – |
| CCCC1(CC(=O)O)OCCc2c1[nH]c1c(C)c(OCc3cc(C)n(C)n3)cc(C#N)c21 (centres unmarked) [Example 78] | < 500 nM | < 500 nM | – |
| CCCC1(CC(=O)O)OCCc2c1[nH]c1c(C)c(OCc3cc(C)no3)cc(C#N)c21 (centres unmarked) [Example 79] | < 500 nM | < 500 nM | – |
| CCCC1(CC(=O)O)OCCc2c1[nH]c1c(C)c(OCc3c(C)noc3C)cc(C#N)c21 (centres unmarked) [Example 80] | < 500 nM | < 500 nM | – |
| CCCC1(CC(=O)O)OCCc2c1[nH]c1c(C)c(OCc3cc(Br)no3)cc(C#N)c21 (centres unmarked) [Example 81] | < 500 nM | < 500 nM | – |
| CCCC1(CC(=O)O)OCCc2c1[nH]c1c(C)c(OCc3ccn(C)n3)cc(C#N)c21 (centres unmarked) [Example 82] | < 500 nM | < 500 nM | – |
| CCCC1(CC(=O)O)OCCc2c1[nH]c1c(C)c(OCc3cc[nH]n3)cc(C#N)c21 (centres unmarked) [Example 83] | < 500 nM | < 500 nM | – |
| CCCC1(CC(=O)O)OCCc2c1[nH]c1c(C)c(OC(C)c3cc(C)n(C)n3)cc(C#N)c21 (centres unmarked) [Example 84] | < 500 nM | – | < 500 nM |
| CCCC1(CC(=O)O)OCCc2c1[nH]c1c(C)c(OCc3csc(C(C)(C)C)n3)cc(C#N)c21 (centres unmarked) [Example 85] | < 500 nM | < 500 nM | – |
| CCCC1(CC(=O)O)OCCc2c1[nH]c1c(C)c(OCc3nc(C)ccc3OC)cc(C#N)c21 (centres unmarked) [Example 86] | < 500 nM | < 500 nM | – |
| CCCC1(CC(=O)O)OCCc2c1[nH]c1c(C)c(OCc3nnc(C(C)(C)C)s3)cc(C#N)c21 (centres unmarked) [Example 87] | < 500 nM | < 500 nM | – |
| CCCC1(CC(=O)O)OCCc2c1[nH]c1c(C)c(OCc3noc(C(C)(C)C)n3)cc(C#N)c21 (centres unmarked) [Example 88] | < 500 nM | < 500 nM | – |
| CCCC1(CC(=O)O)OCCc2c1[nH]c1c(C)c(OCCCc3cc(C)no3)cc(C#N)c21 (centres unmarked) [Example 89] | < 500 nM | < 500 nM | – |
| CCCC1(CC(=O)O)OCCc2c1[nH]c1c(C)c(OCc3ccnc(C(C)=O)c3)cc(C#N)c21 (centres unmarked) [Example 90] | < 500 nM | < 500 nM | – |
| CCCC1(CC(=O)O)OCCc2c1[nH]c1c(C)c(OCc3ccnc(C(C)(C)O)c3)cc(C#N)c21 (centres unmarked) [Example 91] | < 500 nM | < 500 nM | – |
| CCCC1(CC(=O)O)OCCc2c1[nH]c1c(C)c(OCc3ccnc(C(C)O)c3)cc(C#N)c21 (centres unmarked) [Example 92] | < 500 nM | < 500 nM | – |
| CCCC1(CC(=O)O)OCCc2c1[nH]c1c(C)c(OCc3ccnc(NC(C)=O)c3)cc(C#N)c21 (centres unmarked) [Example 93] | < 500 nM | < 500 nM | – |
| CCCC1(CC(=O)O)OCCc2c1[nH]c1c(C)c(OCc3ccnc(COC)c3)cc(C#N)c21 (centres unmarked) [Example 94] | < 500 nM | – | < 500 nM |
| CCCC1(CC(=O)O)OCCc2c1[nH]c1c(C)c(OCc3ccnc(C(C)=NOC)c3)cc(C#N)c21 (centres unmarked) [Example 95] | < 500 nM | < 500 nM | – |
